Read-outs that look alike come from different tables or passages of the source.
Legend:
M1 muscarinic receptor [1] = molecular target: T1, M1 muscarinic receptor (Homo sapiens, UniProt P11229); set-up: purchased PerkinElmer, Inc., Wellesley, Mass; host or cells: CHO cells; settings: reference compounds; read-out: Ki of reference compounds, M1 binding assay; cited from earlier work
T1 sequence (P11229 1-460): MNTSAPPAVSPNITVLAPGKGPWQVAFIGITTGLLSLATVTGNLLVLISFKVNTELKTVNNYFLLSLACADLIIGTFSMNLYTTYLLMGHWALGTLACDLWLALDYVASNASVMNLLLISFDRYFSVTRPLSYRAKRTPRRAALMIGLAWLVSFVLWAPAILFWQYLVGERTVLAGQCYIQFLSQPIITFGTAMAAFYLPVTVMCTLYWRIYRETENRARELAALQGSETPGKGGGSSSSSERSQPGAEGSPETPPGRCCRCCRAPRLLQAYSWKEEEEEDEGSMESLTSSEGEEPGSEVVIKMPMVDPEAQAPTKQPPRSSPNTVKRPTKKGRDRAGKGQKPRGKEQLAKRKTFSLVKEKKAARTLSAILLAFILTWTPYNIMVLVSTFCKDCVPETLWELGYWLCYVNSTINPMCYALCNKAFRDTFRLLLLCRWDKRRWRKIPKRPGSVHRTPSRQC

adult male Wistar rats = test: SCORE-2000 sleep-wakefulness, locomotor activity and body temperature monitoring; format: in vivo, rat
H1 histamine receptor = molecular target: T2, H1 histamine receptor (Bos taurus, UniProt P30546); test: Histamine H1 competitive binding assay ([3H]pyrilamine); set-up: species or system bovine; settings: bovine receptor; read-out: H1 binding
T2 construct: the receptors were obtained from bovine cerebellar membrane tissue; from tissue; host or cells: bovine cerebellar membranes
T2 sequence (P30546 whole entry): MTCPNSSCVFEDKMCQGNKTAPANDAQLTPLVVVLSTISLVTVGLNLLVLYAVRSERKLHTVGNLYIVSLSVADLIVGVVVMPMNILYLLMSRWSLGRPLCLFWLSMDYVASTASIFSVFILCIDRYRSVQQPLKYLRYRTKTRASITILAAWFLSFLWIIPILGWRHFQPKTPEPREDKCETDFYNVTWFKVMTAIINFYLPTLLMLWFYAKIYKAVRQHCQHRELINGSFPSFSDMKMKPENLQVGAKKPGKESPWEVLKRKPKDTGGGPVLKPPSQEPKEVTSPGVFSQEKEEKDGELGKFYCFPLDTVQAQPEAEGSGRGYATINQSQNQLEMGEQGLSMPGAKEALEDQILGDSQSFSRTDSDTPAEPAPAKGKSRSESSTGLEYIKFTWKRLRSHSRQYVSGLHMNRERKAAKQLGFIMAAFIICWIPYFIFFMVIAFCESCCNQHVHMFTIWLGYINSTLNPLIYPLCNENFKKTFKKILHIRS

M1 muscarinic receptor [2] = molecular target: T1, M1 muscarinic receptor; test: Muscarinic M1 binding assay ([3H]-scopolamine, N-methyl chloride)
M2 muscarinic receptor = molecular target: T3, M2 muscarinic receptor (Homo sapiens, UniProt P08172); test: Muscarinic M2 binding assay
T3 sequence (P08172 1-466): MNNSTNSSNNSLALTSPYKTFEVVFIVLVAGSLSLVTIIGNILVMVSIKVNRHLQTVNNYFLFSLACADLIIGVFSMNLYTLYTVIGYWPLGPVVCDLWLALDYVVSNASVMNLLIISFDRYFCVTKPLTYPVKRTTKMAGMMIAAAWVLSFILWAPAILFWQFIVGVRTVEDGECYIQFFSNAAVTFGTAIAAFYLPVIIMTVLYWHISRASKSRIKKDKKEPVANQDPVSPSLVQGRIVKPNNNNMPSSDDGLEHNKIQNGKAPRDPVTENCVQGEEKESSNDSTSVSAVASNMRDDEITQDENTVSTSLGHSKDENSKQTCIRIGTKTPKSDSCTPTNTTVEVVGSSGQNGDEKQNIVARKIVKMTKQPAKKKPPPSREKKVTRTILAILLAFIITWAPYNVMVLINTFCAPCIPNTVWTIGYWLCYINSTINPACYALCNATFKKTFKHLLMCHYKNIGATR

M3 muscarinic receptor = M3 muscarinic receptor (Homo sapiens, UniProt P20309); test: Muscarinic M3 binding assay
Sequence of M3 muscarinic receptor (P20309 whole entry): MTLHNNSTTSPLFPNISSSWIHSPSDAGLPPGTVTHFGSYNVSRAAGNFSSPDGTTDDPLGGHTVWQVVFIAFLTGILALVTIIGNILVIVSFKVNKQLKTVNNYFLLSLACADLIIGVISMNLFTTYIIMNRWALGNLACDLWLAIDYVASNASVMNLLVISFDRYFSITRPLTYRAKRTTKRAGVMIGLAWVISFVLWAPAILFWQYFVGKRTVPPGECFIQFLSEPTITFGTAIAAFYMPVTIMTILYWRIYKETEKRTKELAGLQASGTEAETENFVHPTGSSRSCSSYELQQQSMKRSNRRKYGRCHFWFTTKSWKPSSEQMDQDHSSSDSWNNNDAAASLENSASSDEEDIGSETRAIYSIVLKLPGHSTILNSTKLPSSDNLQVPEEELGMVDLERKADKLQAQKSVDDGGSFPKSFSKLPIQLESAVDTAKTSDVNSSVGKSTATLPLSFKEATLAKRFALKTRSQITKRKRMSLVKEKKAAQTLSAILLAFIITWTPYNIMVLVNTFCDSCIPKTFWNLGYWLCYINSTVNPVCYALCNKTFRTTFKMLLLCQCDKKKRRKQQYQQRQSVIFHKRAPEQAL

[3] = molecular target: Adrenergic, Alpha 1, Non-selective; test: Table 12 panel: Adrenergic, Alpha 1; format: binding; settings: read-out: α1 binding
[4] = molecular target: Adrenergic, Alpha 2, Non-selective; test: Table 12 panel: Adrenergic, Alpha 2; format: binding; settings: read-out: α2 binding
human H1 receptor = human H1 receptor (Homo sapiens, UniProt P35367); test: H1(hR) binding (Table 28)
Sequence of human H1 receptor (P35367 whole entry): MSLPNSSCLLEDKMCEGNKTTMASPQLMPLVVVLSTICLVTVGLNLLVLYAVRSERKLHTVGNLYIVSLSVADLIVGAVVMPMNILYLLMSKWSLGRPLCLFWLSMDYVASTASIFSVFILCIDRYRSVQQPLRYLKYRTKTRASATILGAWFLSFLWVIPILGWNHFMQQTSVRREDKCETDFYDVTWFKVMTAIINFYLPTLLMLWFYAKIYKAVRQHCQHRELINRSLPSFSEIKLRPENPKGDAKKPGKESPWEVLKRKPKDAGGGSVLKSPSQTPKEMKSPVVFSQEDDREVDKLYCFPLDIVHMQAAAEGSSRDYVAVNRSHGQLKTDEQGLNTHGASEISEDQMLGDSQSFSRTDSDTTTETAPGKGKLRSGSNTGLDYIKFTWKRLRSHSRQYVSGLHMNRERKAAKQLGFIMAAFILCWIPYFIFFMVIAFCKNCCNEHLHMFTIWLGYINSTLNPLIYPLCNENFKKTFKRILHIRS
Protocol: (§1) The comparative data is shown in Table 28, unless otherwise noted, binding was measured with the bovine receptors, H1(hR) is the human H1 receptor, 5HT2a (h) is the human 5HT2a receptor. Binding numbers are presented in nM values.

human 5HT2a receptor = human 5HT2a receptor (Homo sapiens, UniProt P28223); test: 5HT2a (h) binding (Table 28)
Sequence of human 5HT2a receptor (P28223 whole entry): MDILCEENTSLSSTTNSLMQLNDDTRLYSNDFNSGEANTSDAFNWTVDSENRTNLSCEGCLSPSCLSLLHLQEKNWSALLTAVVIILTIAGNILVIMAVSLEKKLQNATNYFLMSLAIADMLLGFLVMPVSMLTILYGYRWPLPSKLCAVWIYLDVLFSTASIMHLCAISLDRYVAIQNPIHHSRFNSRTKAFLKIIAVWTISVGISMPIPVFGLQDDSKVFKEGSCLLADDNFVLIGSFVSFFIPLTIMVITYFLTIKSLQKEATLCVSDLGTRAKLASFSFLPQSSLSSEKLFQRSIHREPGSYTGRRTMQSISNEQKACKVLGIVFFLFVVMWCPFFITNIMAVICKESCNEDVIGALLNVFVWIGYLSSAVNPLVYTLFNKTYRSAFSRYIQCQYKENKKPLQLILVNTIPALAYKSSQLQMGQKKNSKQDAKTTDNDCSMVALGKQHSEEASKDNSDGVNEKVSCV

Dopamine, D1 = Dopamine, D1 (UniProt P21728); test: Dopamine, D1 (human recombinant) binding assay
[5] = molecular target: Dopamine, D1 (human recombinant) (UniProt P14416); test: Dopamine D2 binding assay (printed as D1 in b555)
Protocol: In vitro binding assays are used to determine H1 binding (i.e., primary target binding) and M1, M2 and M3 binding (i.e., off target binding). […] Similar assays are performed with H1 and dopamine receptors (D1 and D2), and with H1 and adrenergic receptors (α1 and α2).
Dopamine, D1 (human recombinant) binding assay was performed according to published procedures. See, e.g., Jarvie, et al. J. Recept Res., 13(1–4): 573–90 (1993); and Gundlach, et al. Life Sciences, 35(19): 1981–8 (1984) with modifications

5HT2a (rat) = 5HT2a (rat) (Rattus norvegicus, UniProt P14842); test: 5HT2a (rat) binding (Table 28)
Sequence of 5HT2a (rat) (P14842 whole entry): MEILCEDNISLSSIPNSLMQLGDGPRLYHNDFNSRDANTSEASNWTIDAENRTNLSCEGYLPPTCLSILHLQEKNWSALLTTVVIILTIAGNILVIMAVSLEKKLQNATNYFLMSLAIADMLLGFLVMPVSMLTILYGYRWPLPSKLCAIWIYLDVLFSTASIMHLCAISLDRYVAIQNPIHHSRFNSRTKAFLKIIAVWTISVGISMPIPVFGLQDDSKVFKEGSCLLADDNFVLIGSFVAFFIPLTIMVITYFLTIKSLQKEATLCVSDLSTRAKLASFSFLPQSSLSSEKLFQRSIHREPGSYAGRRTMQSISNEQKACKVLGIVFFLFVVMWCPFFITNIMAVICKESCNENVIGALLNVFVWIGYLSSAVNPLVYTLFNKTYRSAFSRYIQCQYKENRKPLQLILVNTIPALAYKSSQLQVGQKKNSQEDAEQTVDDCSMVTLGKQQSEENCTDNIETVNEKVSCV
Protocol: as §1

hERG = hERG (Homo sapiens, UniProt Q12809); settings: human, 10 µM, pH 7.4
Sequence of hERG (Q12809 whole entry): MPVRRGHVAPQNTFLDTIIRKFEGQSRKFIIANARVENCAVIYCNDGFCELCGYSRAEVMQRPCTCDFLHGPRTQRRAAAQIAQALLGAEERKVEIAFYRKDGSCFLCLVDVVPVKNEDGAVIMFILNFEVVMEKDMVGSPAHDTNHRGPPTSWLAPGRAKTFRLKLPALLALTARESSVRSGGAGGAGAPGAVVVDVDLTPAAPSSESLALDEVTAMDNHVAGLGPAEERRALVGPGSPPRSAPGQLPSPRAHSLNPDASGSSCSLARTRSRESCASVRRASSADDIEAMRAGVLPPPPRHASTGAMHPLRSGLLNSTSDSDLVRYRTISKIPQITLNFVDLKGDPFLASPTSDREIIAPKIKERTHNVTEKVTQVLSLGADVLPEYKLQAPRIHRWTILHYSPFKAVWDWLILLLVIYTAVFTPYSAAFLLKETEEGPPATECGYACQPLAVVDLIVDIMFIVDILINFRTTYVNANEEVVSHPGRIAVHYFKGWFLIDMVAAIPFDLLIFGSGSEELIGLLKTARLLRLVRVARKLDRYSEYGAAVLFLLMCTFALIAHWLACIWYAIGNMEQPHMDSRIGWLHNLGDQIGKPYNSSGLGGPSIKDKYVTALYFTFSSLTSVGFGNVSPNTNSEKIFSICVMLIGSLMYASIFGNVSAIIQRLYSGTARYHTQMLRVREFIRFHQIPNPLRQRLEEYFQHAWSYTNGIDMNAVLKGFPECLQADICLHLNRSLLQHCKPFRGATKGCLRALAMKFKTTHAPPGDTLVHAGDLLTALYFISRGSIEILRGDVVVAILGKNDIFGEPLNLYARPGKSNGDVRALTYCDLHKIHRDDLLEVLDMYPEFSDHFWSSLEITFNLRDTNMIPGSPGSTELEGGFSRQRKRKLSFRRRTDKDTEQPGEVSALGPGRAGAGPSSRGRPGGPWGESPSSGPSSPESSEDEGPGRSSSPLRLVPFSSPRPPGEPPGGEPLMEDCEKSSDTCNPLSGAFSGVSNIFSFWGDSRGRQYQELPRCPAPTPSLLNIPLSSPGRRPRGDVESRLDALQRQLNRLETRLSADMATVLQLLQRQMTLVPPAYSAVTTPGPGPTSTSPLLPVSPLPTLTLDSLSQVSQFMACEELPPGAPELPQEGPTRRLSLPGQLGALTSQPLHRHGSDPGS

In the case of C[N+]1(C)CCC(OC(=O)C(c2ccccc2)c2ccccc2)CC1 [4-DAMP methiodide], the Ki (M1 muscarinic receptor [1]) is listed as 0.27 nM.
For COc1ccc2c(c1)COc1ccc(F)cc1C2=C1CCN(CCCC(=O)O)CC1 [Compound 10520], the “LUSB 3 mg/kg” value (adult male Wistar rats; 3 mg/kg) was 4.9 ± 1.7, the “LUSB 10 mg/kg” value (adult male Wistar rats; 10 mg/kg) was 10.0 ± 2.2 and the “NREM cumul. 10 mpk” value (adult male Wistar rats; 10 mpk) was 41 ± 8. The Ki (H1 histamine receptor) was 22.5 nM, the Ki (M1 muscarinic receptor [2]) was > 10000 nM and the Ki (M2 muscarinic receptor) was > 10000 nM. The Ki (M3 muscarinic receptor) was > 10000 nM, the Ki [3] was 1090 nM and the Ki [4] was > 10000 nM. The Ki (human H1 receptor) was 43 nM, the Ki (human 5HT2a receptor) was 396 nM and the Ki (Dopamine, D1) was > 10000 nM. The Ki [5] was > 10000 nM, the Ki (5HT2a (rat)) was 55.8 nM and the HERG (hERG) was 56.00%.
